The source of these data is patent US20100022491A1, “4-HYDROXY-2-OXO-2,3-DIHYDRO-1,3-BENZOTHIAZOL-7YL COMPOUNDS FOR MODULATION OF B2-ADRENORECEPTOR ACTIVITY” (ASTRAZENECA AB, priority 2006, published 2010).

The target of test [1] is T1, Adrenergic β2 (Homo sapiens, UniProt P07550).
T1 construct: Adherent H292 cells were removed from tissue culture flasks; endogenous in cells; host or cells: H292 cells
In words: Adrenergic β2 mediated cAMP production in H292 cells. The conditions noted are these: for EC50: H292 cells, cAMP by AlphaScreen, 60 minutes at room temperature, rolipram 300 μM, read-out: β2 pEC50 (converted); for β2 Int Act: Intrinsic Activity as a fraction relative to the maximum activity determined for formoterol. It counts as cell-based. The essentials:
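H292 cells pretreated 10 min with rolipram (300 μM final), then exposed to agonist 60 min at room temperature in HEPES-buffered HBSS, 1.6% DMSO final. Lysate cAMP quantified by AlphaScreen against a cAMP standard curve; four-parameter fit gives pEC50 and intrinsic activity relative to formoterol maximum.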

In test [2] the target is T2, recombinant human α1D receptor (Homo sapiens, UniProt P25100).
T2 construct: expressed in transfected cells; host or cells: HEK293
T2 sequence (P25100 1-572): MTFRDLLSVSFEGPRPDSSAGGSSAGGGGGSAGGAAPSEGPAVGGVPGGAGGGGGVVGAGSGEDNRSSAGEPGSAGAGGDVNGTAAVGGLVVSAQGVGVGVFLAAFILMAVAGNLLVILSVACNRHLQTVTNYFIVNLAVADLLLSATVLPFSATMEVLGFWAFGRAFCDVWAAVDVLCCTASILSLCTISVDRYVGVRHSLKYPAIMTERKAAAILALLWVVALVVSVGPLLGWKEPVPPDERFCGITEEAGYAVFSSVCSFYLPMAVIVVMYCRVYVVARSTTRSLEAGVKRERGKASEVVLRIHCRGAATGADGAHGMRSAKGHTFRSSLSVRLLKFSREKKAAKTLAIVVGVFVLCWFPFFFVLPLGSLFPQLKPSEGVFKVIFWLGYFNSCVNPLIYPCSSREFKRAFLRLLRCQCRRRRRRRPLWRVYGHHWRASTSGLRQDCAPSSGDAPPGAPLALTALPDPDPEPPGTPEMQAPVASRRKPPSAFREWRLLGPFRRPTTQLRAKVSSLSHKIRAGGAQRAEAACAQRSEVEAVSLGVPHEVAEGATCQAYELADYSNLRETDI
In words: Adrenergic α1D selectivity binding assay ([3H]-prazosin). The conditions noted are these: inhibition of [3H]-prazosin (0.3 nM) binding, HEK293 membranes; read-out: α1 bind pIC50 (converted). Summed up: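 HEK293 membranes with recombinant human α1D receptor incubated 2 h at room temperature with 0.3 nM [3H]-prazosin and compound in 50 mM HEPES, 1 mM EDTA, 0.1% gelatin, pH 7.4; BMY7378 (10 μM) defined non-specific binding. Filter-bound radioactivity counted; pIC50 from four-parameter logistic fit.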

Structures can show the parent of a compound that is named as a salt.

T1 sequence (P07550 whole entry): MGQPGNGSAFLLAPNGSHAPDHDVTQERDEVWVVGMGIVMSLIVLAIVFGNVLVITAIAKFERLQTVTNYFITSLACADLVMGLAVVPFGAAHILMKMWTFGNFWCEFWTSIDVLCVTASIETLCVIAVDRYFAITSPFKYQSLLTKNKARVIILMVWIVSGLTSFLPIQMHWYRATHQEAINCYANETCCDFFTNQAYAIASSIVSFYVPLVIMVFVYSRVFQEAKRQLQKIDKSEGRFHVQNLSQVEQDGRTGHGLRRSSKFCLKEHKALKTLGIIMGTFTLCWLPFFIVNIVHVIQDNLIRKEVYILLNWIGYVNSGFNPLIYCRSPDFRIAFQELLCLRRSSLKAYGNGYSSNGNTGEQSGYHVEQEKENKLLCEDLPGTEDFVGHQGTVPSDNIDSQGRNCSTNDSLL

In the case of `CCCC[C@H](C)N(CCNCCc1ccc(O)c2[nH]c(=O)sc12)C(=O)CCNCCc1ccccc1` [Example 102, N-(2-{[2-(4-Hydroxy-2-oxo-2,3-dihydro-1,3-benzothiazol-7-yl)ethyl]amino}ethyl)-N-[(1S)-1-methylpentyl]-N^3-(2-phenylethyl)-β-alaninamide bis-trifluoroacetic acid salt], in test [1], the EC50 was 79.4 nM and the “β2 Int Act” value came to 0.23. Also, the IC50 in test [2] is 100 nM.
For `CC(CN(C(=O)CCNCCc1cccc(F)c1)C1CCCCCC1)NCCc1ccc(O)c2[nH]c(=O)sc12` (stereo not drawn) [Example 104, N-Cycloheptyl-N^3-[2-(3-fluorophenyl)ethyl]-N-(2-{[2-(4-hydroxy-2-oxo-2,3-dihydro-1,3-benzothiazol-7-yl)ethyl]amino}propyl)-β-alaninamide bis-trifluoroacetic acid salt] the same measures were 5.01 nM, 0.81 and 100 nM.
For the molecule `CC(CN(C(=O)CCNCCc1ccccc1)C1CCCCC1)NCCc1ccc(O)c2[nH]c(=O)sc12` (stereo not drawn) [Example 105, N-Cyclohexyl-N-(2-{[2-(4-hydroxy-2-oxo-2,3-dihydro-1,3-benzothiazol-7-yl)ethyl]amino}propyl)-N^3-(2-phenylethyl)-β-alaninamide bis-trifluoroacetic acid salt], in test [1], the EC50 is 6.31 nM and the “β2 Int Act” value was 0.86. Also, in test [2], the IC50 was 79.4 nM.
